Experiment [1] addresses T1, recombinant human eotaxin (CCL11) (Homo sapiens, UniProt P51671).
T1 construct: host or cells: E. coli
The experiment in a line: BIAcore inhibition of eotaxin-1 binding to immobilized heparin. Conditions: BIAcore chip, FIG. 3D. The source says:
The optical phenomenon of surface plasmon resonance is used to monitor physical interactions between molecules. Passing a solution of a potential protein ligand (e.g. IL-4, IL-5 or eotaxin) over a sensor surface to which a target (e.g. heparin) is coupled monitors the real-time binding of protein ligands to the immobilized target. Detection is achieved by measuring refractive index changes very close to the sensor surface. When the refractive index is altered, the angle at which plasmon resonance occurs changes and this change directly correlates with the amount of protein interacting with the surface. A BIAcore 2000 is conveniently used. […]
Biotinylated heparin is immobilized on the biosensor chip. […] Solutions containing potential protein ligands of interest are injected over the sensor chip surface, and the binding is measured in real time (Fernig, In: Proteoglycan protocols, Ed. R. V. Iozzo, Humana Press, Totowa, N.J., USA, 2001). Baculovirus expressed recombinant human IL-4 (rhIL-4) and baculovirus expressed recombinant human IL-5 (rhIL-5) readily bind to heparin immobilized by this method (see PCT/AU2005/000551). […] Similarly, recombinant human eotaxin (CCL11) expressed in E. coli binds readily to immobilized heparin and binding is specific as there is little eotaxin binding to sensor chips lacking heparin. […]

The target of the next experiment is T2, human IL-8 (Homo sapiens, UniProt P10145).
T2 sequence (P10145 21-99): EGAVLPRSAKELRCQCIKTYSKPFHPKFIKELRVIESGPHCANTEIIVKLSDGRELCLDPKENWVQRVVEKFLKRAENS
The experiment in a line: IL-8 induced migration of DMSO treated HL-60 cells (chemotaxis). The class given is cell-based. Conditions: 50 μg/ml, IL-8 20 ng/ml. Here is the method: Chemokines known to play an important role in mediating the inflammation associated with COPD include IL-8, MCP-1 and MIP-1α (Barnes 2004, supra). […] These experiments were performed using DMSO treated human promyelocytic HL-60 cells. These cells were derived from a patient with acute promyelocytic leukemia. The cells were treated with DMSO (1.2%) for 4 days before being used in the experiments. The chemotaxis assays were performed in 96-well Costar chemotaxis plates consisting of a bottom chamber to which was added the human IL-8 (+/−inhibitor) and then cells in RPMI and 1% v/v FCS were added to a top chamber and the plate was incubated at 37° C. for 1 hour to allow cells to move from the top chamber into the bottom. The number of cells migrating into the bottom chamber was quantified by labeling with AQUEOUS ONE (20 μl/well) for 1.75 hours before absorbance at 490 nm is read. IL-8 was used at a final concentration of 20 ng/ml and the inhibitors were the sulfated xylan pentasaccharide (10 and 50 μg/ml) and pentosan polysulfate (10 and 50 μg/ml). Cell migration is compared with that seen with no IL-8 or with IL-8 and no inhibitor.

For a further experiment, the target named is human MCP-1 (Homo sapiens, UniProt P13500). The experiment in a line: MCP-1 induced migration of THP-1 cells (chemotaxis). The format is cell-based. Conditions: 50 μg/ml, MCP-1 10 ng/ml. Here is the method:
These cells were originally derived from the peripheral blood of a patient with acute monocytic leukaemia. The assay was very similar to that described above. The chemotaxis assays were performed in 96-well Costar chemotaxis plates and human MCP-1 (+/−inhibitor) was added to the bottom chamber and the THP-1 cells in RPMI/1% FCS were added to the top chamber and the plate was incubated at 37° C. for 2.5 hour to allow cells to move from the top chamber into the bottom. The number of cells migrating into the bottom chamber was quantified by labeling with AQUEOUS ONE (30 μl/well) for 4 hours before absorbance at 490 run is read. MCP-1 was used at a final concentration of 10 ng/ml and the inhibitors were the sulfated xylan pentasaccharide (10 and 50 μg/ml) and PPS (10 and 50 μg/ml). In these experiments both PPS and the sulfated xylan pentasaccharide were effective, but PPS was a better inhibitor (FIG. 18) as at 50 μg/ml PPS inhibited cell movement by 89% whereas at the same concentration the sulfated xylan pentasaccharide cell movement by 53%.

In a further experiment the target is T3, human MIP-1α (Homo sapiens, UniProt P10147).
T3 sequence (P10147 24-92): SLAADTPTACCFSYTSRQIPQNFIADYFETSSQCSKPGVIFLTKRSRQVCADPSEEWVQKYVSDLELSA
The experiment in a line: MIP-1α induced migration of DMSO treated U937 cells (chemotaxis). The class given is cell-based. Conditions: MIP-1α 40 ng/ml. The method, then:
DMSO treated U937 cells were used to examine the cell migration in response to MIP-1α. U937 cells are a promonocytic human cell line originally derived from the pleural effusion of a patient with histiocytic lymphoma. These cells were treated with DMSO (1.2%) for 4 days before being used in chemotaxis experiments. The chemotaxis assays were performed in 96-well Costar chemotaxis plates and human MIP-1α (+/−inhibitor) was added to the bottom chamber and the DMSO treated U937 cells in RPMI/HEPES were added to the top chamber and the plate was incubated at 37° C. for 3 hour to allow cells to move from the top chamber into the bottom. The number of cells migrating into the bottom chamber was quantified by labeling with AQUEOUS ONE (30 μl/well) for 1 hour before absorbance at 490 nm is read. MIP-1α was used at a final concentration of 40 ng/ml and the inhibitors were the sulfated xylan pentasaccharide (10 and 50 μg/ml) and PPS (10 and 50 μg/ml). It is clear from these experiments that both PPS and the sulfated xylan pentasaccharide inhibited MIP-1α stimulated cell movement.

Chain of human MCP-1 (P13500 24-99): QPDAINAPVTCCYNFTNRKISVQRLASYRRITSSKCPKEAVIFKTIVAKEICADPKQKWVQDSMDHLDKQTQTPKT
T1 sequence (P51671 24-97): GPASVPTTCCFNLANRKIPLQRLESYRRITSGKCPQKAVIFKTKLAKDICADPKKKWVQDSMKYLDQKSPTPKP

What is called IC50 is the concentration that inhibits the measured activity by half. With Pentosan polysulfate [PPS], in experiment [1], the IC50 is about 15 nM. The “Inhibition of cell migration triggered by IL-8” value on human IL-8 is listed as 74%. Also, the “Inhibition of cell movement induced by MCP-1” value on human MCP-1 stood at 89%. Moreover, the “Inhibition of MIP-1α stimulated cell movement” value is 48% at human MIP-1α (10 μg/ml) and 69% on human MIP-1α (50 μg/ml).

(Values after US20180078576A1, “SULPHATED XYLANS FOR TREATMENT OR PROPHYLAXIS OF RESPIRATORY DISEASES” (Paradigm Biopharmaceuticals Limited, priority 2007, published 2018).)
